In US20230114728A1 (Venatorx Pharmaceuticals, Inc., priority 2019, published 2023):
Values after ≈ are worked out from the molar mass of the structure shown.

Columns and labels:
[1] = molecular target: T1, P. aeruginosa PBP3 (Pseudomonas aeruginosa, UniProt G3XD46); test: Bocillin-FL fluorescence polarization competition binding assay, P. aeruginosa PBP3; settings: fluorescence polarization competition binding assay using Bocillin-FL
T1 construct: made in house
How it was run: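 Binding of boronic acid inhibitors to purified Pseudomonas aeruginosa (PA01) PBP3 was measured by fluorescence polarization competition with Bocillin-FL, a fluorescent penicillin V. Reactions of 80 μl contained 0.75 μM PBP3 and 0.1 μM Bocillin-FL in 50 mM Hepes (pH 8.0), 300 mM NaCl and 5% (v/v) glycerol, in black 384-well plates. FP (Excitation 490 nm, Emission 520 nm) was read for up to 60 minutes. EC50 is the concentration that halves PBP-bound Bocillin-FL.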

[2] = tested on: N. gonorrhoeae WHO Q; test: Liquid broth MIC in Fastidious broth; type: cell-based; settings: Neisseria gonorrhoeae, read-out: Minimum Inhibitory Concentration, N. gonorrhoeae WHO Q
How it was run: (§1)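 Mosaic PBP2 producers; colonies from 24 h chocolate agar, saline suspension, OD600. Fastidious broth, 2-fold dilutions, 5×10^5 CFU/mL. ~24 h, 36 °C, 5% CO2; visual MIC, <10% growth cutoff.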

[3] = tested on: N. gonorrhoeae WHO Z; test: Liquid broth MIC in Fastidious broth; type: cell-based; settings: Neisseria gonorrhoeae, read-out: Minimum Inhibitory Concentration, N. gonorrhoeae WHO Z
How it was run: as §1

[4] = tested on: N. gonorrhoeae FA1090; test: Liquid broth MIC in Fastidious broth; type: cell-based; settings: Neisseria gonorrhoeae; N. gonorrhoeae strain FA1090; Fastidious broth; read-out: Minimum Inhibitory Concentration, N. gonorrhoeae FA1090
How it was run: (§2)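 Colonies were swabbed from chocolate agar after 24 h growth and standardised by optical density at 600 nm. Compounds were serially diluted twofold in Fastidious broth, and bacteria added to give 5×10^5 CFU/mL. After about 24 h at 36 °C in 5% CO2, the lowest concentration allowing under 10% growth was taken as MIC.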

[5] = tested on: N. gonorrhoeae WHO G; test: Liquid broth MIC in Fastidious broth; type: cell-based; settings: Neisseria gonorrhoeae; N. gonorrhoeae strain WHO G; Fastidious broth; read-out: Minimum Inhibitory Concentration, N. gonorrhoeae WHO G
How it was run: as §2

[6] = tested on: N. gonorrhoeae H041; test: Liquid broth MIC in Fastidious broth; type: cell-based; settings: Neisseria gonorrhoeae, H041, read-out: Minimum Inhibitory Concentration, N. gonorrhoeae H041
How it was run: as §1

[7] = tested on: N. gonorrhoeae ATCC 49226; test: Liquid broth MIC in Fastidious broth; type: cell-based; settings: Neisseria gonorrhoeae, ATCC49226; N. gonorrhoeae strain ATCC 49226; Fastidious broth; read-out: Minimum Inhibitory Concentration, N. gonorrhoeae ATCC 49226
How it was run: as §2

[8] = tested on: N. gonorrhoeae WHO K; test: Liquid broth MIC in Fastidious broth; type: cell-based; settings: Neisseria gonorrhoeae, read-out: Minimum Inhibitory Concentration, N. gonorrhoeae WHO K
How it was run: as §1

[9] = molecular target: T2, E. coli K12 PBP3 (Escherichia coli, UniProt P0AD68); test: biochemical; type: binding
T2 construct: made in house
How it was run: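 Fluorescence polarization (ex 490/em 520 nm) competition of inhibitors against Bocillin-FL at 0.1 μM, read up to 60 min. Final PBP levels: E. coli PBP3 1.5 μM; A. baumannii PBP2 2.5 μM, PBP3 0.2 μM in Tris pH 8.0/NaCl/glycerol/Tween 20; N. gonorrhoeae PBP2 […] in Hepes pH 8.0/NaCl/glycerol. EC50 = concentration halving PBP-bound Bocillin-FL.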

T2 sequence (P0AD68 1-577): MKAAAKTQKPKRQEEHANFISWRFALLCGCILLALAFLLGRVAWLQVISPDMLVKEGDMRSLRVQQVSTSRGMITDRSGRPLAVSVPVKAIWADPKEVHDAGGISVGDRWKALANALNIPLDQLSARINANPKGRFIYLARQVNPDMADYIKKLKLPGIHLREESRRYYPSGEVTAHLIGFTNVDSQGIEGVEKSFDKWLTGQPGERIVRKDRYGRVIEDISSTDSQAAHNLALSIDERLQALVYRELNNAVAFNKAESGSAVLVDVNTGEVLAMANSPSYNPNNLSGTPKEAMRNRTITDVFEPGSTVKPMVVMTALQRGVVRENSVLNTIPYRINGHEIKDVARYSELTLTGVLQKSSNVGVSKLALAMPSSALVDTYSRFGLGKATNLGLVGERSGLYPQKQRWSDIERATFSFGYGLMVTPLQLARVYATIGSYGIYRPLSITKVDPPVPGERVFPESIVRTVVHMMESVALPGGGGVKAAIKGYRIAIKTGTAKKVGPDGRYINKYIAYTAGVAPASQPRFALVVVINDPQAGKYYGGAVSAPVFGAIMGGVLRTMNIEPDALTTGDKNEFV
T1 sequence (G3XD46 whole entry): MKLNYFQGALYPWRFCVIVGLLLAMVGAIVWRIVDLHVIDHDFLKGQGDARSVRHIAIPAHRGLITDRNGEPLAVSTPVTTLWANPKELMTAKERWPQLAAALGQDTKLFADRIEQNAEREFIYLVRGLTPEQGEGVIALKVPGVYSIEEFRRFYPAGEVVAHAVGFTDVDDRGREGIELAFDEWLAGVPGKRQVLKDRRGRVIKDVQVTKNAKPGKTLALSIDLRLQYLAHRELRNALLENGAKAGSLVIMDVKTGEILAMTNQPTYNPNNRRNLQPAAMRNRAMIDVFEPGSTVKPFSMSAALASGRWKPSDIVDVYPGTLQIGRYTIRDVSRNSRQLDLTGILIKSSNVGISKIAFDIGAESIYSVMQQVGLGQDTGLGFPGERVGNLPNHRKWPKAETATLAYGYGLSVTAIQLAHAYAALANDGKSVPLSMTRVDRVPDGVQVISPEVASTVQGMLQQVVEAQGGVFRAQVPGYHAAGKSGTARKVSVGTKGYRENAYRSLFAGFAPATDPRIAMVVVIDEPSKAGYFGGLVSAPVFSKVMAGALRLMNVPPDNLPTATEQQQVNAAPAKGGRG

Row | Structure (SMILES) | P. aeruginosa PBP3 Potency [1] | MIC [2] [µg/mL] | MIC [3] [µg/mL] | MIC [4] [µg/mL] | MIC [5] [µg/mL] | MIC [6] [µg/mL] | MIC [7] [µg/mL] | MIC [8] [µg/mL] | EC50 [9] [µM]
1 | CCN1CCN(C(=O)NC(C(=O)N[C@H]2Cc3cccc(C(=O)O)c3OB2O)c2cc(F)c(O)cc2F)C(=O)C1=O (stereo partly drawn) [Example 104, (3R)-3-(2-(2,5-difluoro-4-hydroxyphenyl)-2-(4-ethyl-2,3-dioxopiperazine-1-carboxamido)acetamido)-2-hydroxy-3,4-dihydro-2H-benzo[e][1,2]oxaborinine-8-carboxylic acid] | D (D represents a potency <10 μM) | 4 to 8 (≈ 7.14 to 14.3 µM) | 4 to 8 (≈ 7.14 to 14.3 µM) | 0.25 to 0.5 (≈ 0.446 to 0.892 µM) | 1 to 2 (≈ 1.78 to 3.57 µM) | 16 to 32 (≈ 28.6 to 57.1 µM) | 4 to 8 (≈ 7.14 to 14.3 µM) | 16 to 32 (≈ 28.6 to 57.1 µM) | < 30
2 | CCN1CCN(C(=O)NC(C(=O)N[C@H]2Cc3cccc(C(=O)O)c3OB2O)c2c(F)cc(O)cc2F)C(=O)C1=O (stereo partly drawn) [Example 105, (3R)-3-(2-(2,6-difluoro-4-hydroxyphenyl)-2-(4-ethyl-2,3-dioxopiperazine-1-carboxamido)acetamido)-2-hydroxy-3,4-dihydro-2H-benzo[e][1,2]oxaborinine-8-carboxylic acid] | D (D represents a potency <10 μM) | 4 to 8 (≈ 7.14 to 14.3 µM) | 4 to 8 (≈ 7.14 to 14.3 µM) | < 0.125 | 0.25 to 0.5 (≈ 0.446 to 0.892 µM) | 16 to 32 (≈ 28.6 to 57.1 µM) | 4 to 8 (≈ 7.14 to 14.3 µM) | 16 to 32 (≈ 28.6 to 57.1 µM) | < 30
3 | CCN1CCN(C(=O)NC(C(=O)N[C@H]2Cc3cccc(C(=O)O)c3OB2O)c2c(F)c(O)cc(O)c2F)C(=O)C1=O (stereo partly drawn) [Example 106, (3R)-3-(2-(2,6-difluoro-3,5-dihydroxyphenyl)-2-(4-ethyl-2,3-dioxopiperazine-1-carboxamido)acetamido)-2-hydroxy-3,4-dihydro-2H-benzo[e][1,2]oxaborinine-8-carboxylic acid] | D (D represents a potency <10 μM) | > 64 | > 64 | 16 to 32 (≈ 27.8 to 55.5 µM) | 16 to 32 (≈ 27.8 to 55.5 µM) | > 64 | > 64 | > 64 | 30 to 500
4 | CCN1CCN(C(=O)NC(C(=O)N[C@H]2Cc3cccc(C(=O)O)c3OB2O)c2cccc(CNS(N)(=O)=O)c2)C(=O)C1=O (stereo partly drawn) [Example 107, (3R)-3-(2-(4-ethyl-2,3-dioxopiperazine-1-carboxamido)-2-(3-((sulfamoylamino)methyl)phenyl)acetamido)-2-hydroxy-3,4-dihydro-2H-benzo[e][1,2]oxaborinine-8-carboxylic acid] | D (D represents a potency <10 μM) | > 64 | > 64 | 1 to 2 (≈ 1.62 to 3.24 µM) | 16 to 32 (≈ 26 to 51.9 µM) | > 64 | > 64 | > 64 | 30 to 500
5 | CCN1CCN(C(=O)NC(C(=O)N[C@H]2Cc3cccc(C(=O)O)c3OB2O)c2cccc(CN)c2)C(=O)C1=O (stereo partly drawn) [Example 108, (3R)-3-(2-(3-(aminomethyl)phenyl)-2-(4-ethyl-2,3-dioxopiperazine-1-carboxamido)acetamido)-2-hydroxy-3,4-dihydro-2H-benzo[e][1,2]oxaborinine-8-carboxylic acid] | B (B represents a potency between 30 μM and 500 μM inclusive) | > 64 | > 64 | 1 to 2 (≈ 1.86 to 3.72 µM) | 4 to 8 (≈ 7.44 to 14.9 µM) | > 64 | 16 to 32 (≈ 29.8 to 59.6 µM) | > 64 | 30 to 500
6 | NCCN1CCN(C(=O)NC(C(=O)N[C@H]2Cc3cccc(C(=O)O)c3OB2O)c2cc(F)c(O)cc2Cl)C(=O)C1=O (stereo partly drawn) [Example 109, (3R)-3-(2-(4-(2-aminoethyl)-2,3-dioxopiperazine-1-carboxamido)-2-(2-chloro-5-fluoro-4-hydroxyphenyl)acetamido)-2-hydroxy-3,4-dihydro-2H-benzo[e][1,2]oxaborinine-8-carboxylic acid] | D (D represents a potency <10 μM) | > 64 | > 64 | 4 to 8 (≈ 6.76 to 13.5 µM) | > 64 | > 64 | > 64 | > 64 | < 30
7 | CCN1CCN(C(=O)NC(C(=O)N[C@H]2Cc3cccc(C(=O)O)c3OB2O)c2cncc(O)c2)C(=O)C1=O (stereo partly drawn) [Example 112, (3R)-3-(2-(4-ethyl-2,3-dioxopiperazine-1-carboxamido)-2-(5-hydroxypyridin-3-yl)acetamido)-2-hydroxy-3,4-dihydro-2H-benzo[e][1,2]oxaborinine-8-carboxylic acid] | D (D represents a potency <10 μM) | 16 to 32 (≈ 30.5 to 60.9 µM) | 16 to 32 (≈ 30.5 to 60.9 µM) | 1 to 2 (≈ 1.9 to 3.81 µM) | 4 to 8 (≈ 7.61 to 15.2 µM) | > 64 | 4 to 8 (≈ 7.61 to 15.2 µM) | > 64 | 30 to 500
8 | NS(=O)(=O)Nc1cccc(C(NC(=O)N2CCN(CCF)C(=O)C2=O)C(=O)N[C@H]2Cc3cccc(C(=O)O)c3OB2O)c1 (stereo partly drawn) [Example 116, (3R)-3-(2-(4-(2-fluoroethyl)-2,3-dioxopiperazine-1-carboxamido)-2-(3-(sulfamoylamino)phenyl)acetamido)-2-hydroxy-3,4-dihydro-2H-benzo[e][1,2]oxaborinine-8-carboxylic acid] | D (D represents a potency <10 μM) | 16 to 32 (≈ 25.8 to 51.6 µM) | 16 to 32 (≈ 25.8 to 51.6 µM) | 0.25 to 0.5 (≈ 0.403 to 0.806 µM) | 4 to 8 (≈ 6.45 to 12.9 µM) | > 64 | 16 to 32 (≈ 25.8 to 51.6 µM) | 16 to 32 (≈ 25.8 to 51.6 µM) | < 30
9 | NCCCN1CCN(C(=O)N[C@@H](C(=O)N[C@H]2Cc3cccc(C(=O)O)c3OB2O)c2cccc(NS(N)(=O)=O)c2)C(=O)C1=O [Example 117, (R)-3-((R)-2-(4-(3-aminopropyl)-2,3-dioxopiperazine-1-carboxamido)-2-(3-(sulfamoylamino)phenyl)acetamido)-2-hydroxy-3,4-dihydro-2H-benzo[e][1,2]oxaborinine-8-carboxylic acid] | D (D represents a potency <10 μM) | > 64 | > 64 | 4 to 8 (≈ 6.33 to 12.7 µM) | 16 to 32 (≈ 25.3 to 50.7 µM) | > 64 | > 64 | > 64 | 30 to 500
10 | NCCCN1CCN(C(=O)N[C@H](C(=O)N[C@H]2Cc3cccc(C(=O)O)c3OB2O)c2cccc(NS(N)(=O)=O)c2)C(=O)C1=O [Example 118, (R)-3-((S)-2-(4-(3-aminopropyl)-2,3-dioxopiperazine-1-carboxamido)-2-(3-(sulfamoylamino)phenyl)acetamido)-2-hydroxy-3,4-dihydro-2H-benzo[e][1,2]oxaborinine-8-carboxylic acid] | D (D represents a potency <10 μM) | > 64 | > 64 | 4 to 8 (≈ 6.33 to 12.7 µM) | > 64 | > 64 | > 64 | > 64 | 30 to 500
